Data as given in patent publication US10633395B2, “Aryloxazolidinone antibiotic compounds” (Idorsia Pharmaceuticals Ltd., priority 2017, dated 2020).
pIC50: −log10 of the molar value. Values after ≈ are worked out from the molar mass of the structure shown.

Legend:
[1] = tested on: Staphylococcus aureus A798; test: Bacterial growth minimal inhibitory concentration (microdilution), S. aureus A798; type: cell-based; conditions: multiply resistant (quinolone-resistant) strain, cation-adjusted Mueller-Hinton Broth
Procedure: (§1) Bacterial growth minimal inhibitory concentrations: Minimal inhibitory concentrations (MICs; mg/L) were determined in cation-adjusted Mueller-Hinton Broth by a microdilution method following the description given in “Methods for Dilution Antimicrobial Susceptibility Tests for Bacteria that Grow Aerobically”, Approved standard, 7th ed., Clinical and Laboratory Standards Institute (CLSI) Document M7-A7, Wayne, Pa., USA (2006).
(§2) The compound of Example 1 according to the present invention (inv.) and reference compounds 4 (ref.) to 9 (ref.) were tested against several Gram-positive and Gram-negative bacteria. Staphylococcus aureus A798 is a multiply resistant strain (in particular quinolone-resistant), Klebsiella pneumoniae A-651 is a multiply resistant strain (in particular quinolone-resistant), while E. coli ATCC25922 and P. aeruginosa ATCC27853 are quinolone-sensitive strains. The corresponding antibacterial test results are given in Table 1 hereafter (MICs in mg/L).

E. coli ATCC25922 = test: Bacterial growth minimal inhibitory concentration (microdilution), E. coli ATCC25922; type: cell-based; conditions: Escherichia coli, quinolone-sensitive strain, cation-adjusted Mueller-Hinton Broth
Procedure: as §1, §2

[2] = tested on: Klebsiella pneumoniae A-651; test: Bacterial growth minimal inhibitory concentration (microdilution), K. pneumoniae A-651; type: cell-based; conditions: A651, multiply resistant (quinolone-resistant) strain, cation-adjusted Mueller-Hinton Broth
Procedure: as §1, §2

P. aeruginosa ATCC27853 = test: Bacterial growth minimal inhibitory concentration (microdilution), P. aeruginosa ATCC27853; type: cell-based; conditions: Pseudomonas aeruginosa, quinolone-sensitive strain, cation-adjusted Mueller-Hinton Broth, read-out: MIC for P. aeruginosa AT0027853
Procedure: as §1, §2

CHO cells = test: Genetic toxicology: in vitro micronuclei formation in CHO cells; type: cell-based, Chinese hamster; conditions: 24 h treatment, ratio versus untreated cells
Procedure: Genetic toxicology testing of compounds to assess their ability to cause DNA damage was done in vitro in mammalian cell assays (CHO cells). The formation of micronuclei, small DNA-staining particles outside of the nucleus, was investigated in mononucleated and binucleated cells treated with increasing concentrations of a test compound for 24 h. DNA was stained with Hoechst 33342 (Mutat Res. 630:1-13, 2007), read with a high-content screening microscope (Opera Phenix, Perkin Elmer) and scored with an optimized algorithm using Harmony. Micronucleii associated with valid cells were enumerated and induction of micronuclei formation tabulated as ratio versus untreated cells if the fraction of valid cells was ≥0.2.
Genetic toxicity potential of the compound of Example 1 according to the present invention (inv.) and reference compounds (ref.) was assessed and the corresponding test results are given in Table 3 hereafter.

[3] = tested on: CYP3A4, CYP2C9 and CYP2D6 (lowest IC50 of the isoforms measured); test: Cytochrome P450 inhibition in human liver microsomes; type: in vitro ADME; conditions: lowest of isoforms 3A4, 2C9 and 2D6, 0-100 μM test compound, read-out: CYP450 lowest IC50 of the isoenzymes measured
Procedure: Cytochrome P450 inhibition: The objective of this in vitro assay was to assess potential inhibition of the human cytochrome P450 (CYP450) isoforms 3A4, 2C9 and 2D6 using human liver microsomes and isoform-specific marker reactions. […] This may affect plasma levels in vivo and potentially lead to adverse drug reactions or toxicity. Technically, specific marker-substrate of P450 enzymes were incubated with human liver microsomes in the presence/absence of a test compounds. The inhibition effect of the test compound towards the marker reaction was determined in incubations containing 0-100 μM of the test compound. The inhibitory effect was determined by the impact of the different compound concentrations towards the metabolite formation of the marker reaction. Formation of the metabolites was determined by LC-MS analysis. Metabolic stability of the compounds according to the present invention (inv.) and reference compounds (ref.) in human liver microsomes and inhibition of the human cytochrome P450 (CYP450) isoforms 3A4, 2C9 and 2D6 are given in Table 4 hereafter.

[4] = Metabolic stability: intrinsic clearance in human liver microsomes; type: in vitro ADME; conditions: 1 μM compound, up to 45 minutes
Procedure: Metabolic stability: Subcellular liver fractions and primary hepatocytes from different species were used to determine the in vitro intrinsic clearance of a compound in various species. The liver microsomal and hepatocytes in vitro half-life approach can be a suitable approach to measure intrinsic clearance in vitro, which can be scaled up to the in vivo situation and used in the prediction of human clearance (Obach et al., 1997). For this approach, […] were incubated for up to 45 minutes in subcellular liver fractions or 2 h in primary hepatocytes at final compound concentration of 1 μM. Disappearance of parent compound was determined by LC-MS analysis and intrinsic clearance calculated from the slope of compound disappearance thereof.
Metabolic stability of the compounds according to the present invention (inv.) and reference compounds (ref.) in human liver microsomes and inhibition of the human cytochrome P450 (CYP450) isoforms 3A4, 2C9 and 2D6 are given in Table 4 hereafter.

wild-type E. coli A-1261 = test: MIC against wild-type E. coli A-1261 with or without alkaline phosphatase or esterase (prodrug activation); type: cell-based; conditions: for MIC for E. coli A-1261 In the presence of an alkaline phosphatase (2 i.U./mL): alkaline phosphatase from bovine intestinal mucosa; for MIC for E. coli A-1261 In the presence of an esterase (10 i.U./mL): esterase from porcine liver; for MIC for E. coli A-1261 In the absence of alkaline phosphatase and esterase: no alkaline phosphatase, no esterase
Procedure: as §1
The compounds of Examples 2 and 3 of the present invention (inv.) were tested against wild-type E. coli A-1261 in the presence of alkaline phosphatase (from bovine intestinal mucosa: Sigma P6774-2KU; Lot: SLBB1168) or esterase (from porcine liver: Sigma E2884-5KU; Lot: 129K7010V), and in the absence of an alkaline phosphatase and esterase. The corresponding antibacterial test results are given in Table 2 hereafter (MICs in mg/L).

SMILES	MIC [1] [µg/mL]	MIC (E. coli ATCC25922) [µg/mL]	MIC [2] [µg/mL]	MIC (P. aeruginosa ATCC27853) [µg/mL]	Maximal induction of micronuclei formation normalized vs. background (CHO cells)	pIC50 [3]	Intrinsic clearance in human liver microsomes [4]	MIC for E. coli A-1261 In the presence of an alkaline phosphatase (2 i.U./mL) (wild-type E. coli A-1261) [µg/mL]	MIC for E. coli A-1261 In the presence of an esterase (10 i.U./mL) (wild-type E. coli A-1261) [µg/mL]	MIC for E. coli A-1261 In the absence of alkaline phosphatase and esterase (wild-type E. coli A-1261) [µg/mL]
O=C1COc2ccc(N3C[C@H](CCCN[C@@H]4Cn5c(=O)ccc6cccc4c65)OC3=O)nc2N1 [Example 1, (S)-1-{3-[(S)-2-oxo-3-(3-oxo-3,4-dihydro-2H-pyrido[3,2-b][1,4]oxazin-6-yl)-oxazolidin-5-yl]-propylamino}-1,2-dihydro-pyrrolo[3,2,1-ij]quinolin-4-one]	0.031 (≈ 0.0672 µM)	0.25 (≈ 0.542 µM)	0.5 (≈ 1.08 µM)	1 (≈ 2.17 µM)	2.5	< 4.30	15 μL/min * mg microsomal protein			
O=C1COc2ccc(N3C[C@H](CCCN(C(=O)OCOP(=O)(O)O)[C@@H]4Cn5c(=O)ccc6cccc4c65)OC3=O)nc2N1 [Example 2]								0.25	>8	>8
O=C1COc2ccc(N3C[C@H](CCCN(C(=O)OCOC(=O)CCc4ccccc4OP(=O)(O)O)[C@@H]4Cn5c(=O)ccc6cccc4c65)OC3=O)nc2N1 [Example 3]								0.25	1	>8
